The record followed here is US9145373B2, “Certain kynurenine-3-monooxygenase inhibitors, pharmaceutical compositions, and methods of use thereof” (CHDI FOUNDATION, INC., priority 2008, dated 2015).

Structures can show the parent of a compound that is named as a salt.

The target in this experiment is T1, KMO mouse enzyme (Mus musculus, UniProt Q91WN4).
T1 construct: KMO enzyme prepared at Evotec from mouse liver (4-6 weeks old) via mitochondria isolation; from tissue; host or cells: mouse liver (4-6 weeks old), mitochondria isolation, prepared at Evotec
T1 sequence (Q91WN4 whole entry): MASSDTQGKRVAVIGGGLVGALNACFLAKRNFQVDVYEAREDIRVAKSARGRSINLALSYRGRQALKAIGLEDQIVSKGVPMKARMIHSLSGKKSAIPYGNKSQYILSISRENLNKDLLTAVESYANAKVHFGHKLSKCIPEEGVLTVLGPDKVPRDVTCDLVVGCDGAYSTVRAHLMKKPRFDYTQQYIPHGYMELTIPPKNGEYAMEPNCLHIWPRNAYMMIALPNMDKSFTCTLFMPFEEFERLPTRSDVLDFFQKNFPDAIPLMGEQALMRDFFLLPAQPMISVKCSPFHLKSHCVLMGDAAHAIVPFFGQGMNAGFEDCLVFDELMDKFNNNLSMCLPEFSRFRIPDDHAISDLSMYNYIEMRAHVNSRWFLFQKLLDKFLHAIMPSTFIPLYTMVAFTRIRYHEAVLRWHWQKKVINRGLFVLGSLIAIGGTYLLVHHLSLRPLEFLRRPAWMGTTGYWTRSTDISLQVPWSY
The experiment can be described thus: KMO mouse enzyme assay: L-Kynurenine hydroxylation to 3-Hydroxy-Kynurenine monitored by LC/MS (MRM). Type of experiment: biochemical. The conditions noted are these: compound at 10 μM; KMO enzyme from mouse liver mitochondria; read-out: INH.Mouse @ 10 μM. How it is done:
A method of monitoring L-Kynurenine (KYN) hydroxylation to form 3-Hydroxy-Kynurenine (3OH-KYN) by LC/MS is described. Product is quantified by multiple reaction monitoring (MRM method).
• Compound: Stock concentrations: 10 mM in 100% DMSO • Enzyme: KMO enzyme prepared at Evotec from mouse liver (4-6 weeks old) via mitochondria isolation as described in the literature • Substrate: L-Kynurenine (Sigma: Cat# K3750, stock concentration: 10 mM in 100 mM potassium phosphate buffer, pH 7.4) Assay Conditions: […]
On to `O=C(Nc1cccnc1)c1cc(-c2cc(Cl)cc(Cl)c2)ncn1` [6-(3,5-Dichloro-phenyl)-pyrimidine-4-carboxylic acid pyridin-3-ylamide], for which the inhibition at 10 µM came out at 72.2%. As to `COc1cncc(NC(=O)c2cc(-c3cc(Cl)cc(Cl)c3)ccn2)c1` [4-(3,5-Dichloro-phenyl)-pyridine-2-carboxylic acid (5-methoxy-pyridin-3-yl)-amide], the inhibition at 10 µM was determined as 52.6%. Next, `COc1cccc(-c2cc(C(=O)O)ncn2)c1` [6-(3-Methoxy-phenyl)-pyrimidine-4-carboxylic acid]: 81%; `O=C(Nc1ccccn1)c1cc(-c2cccc(Cl)c2)ncn1` [6-(3-Chloro-phenyl)-pyrimidine-4-carboxylic acid pyridin-2-ylamide]: 100%; `COc1cncc(NC(=O)c2cc(-c3cc(Cl)cc(Cl)c3)ncn2)c1` [6-(3,5-Dichloro-phenyl)-pyrimidine-4-carboxylic acid (5-methoxy-pyridin-3-yl)-amide]: 54.8%. For `COc1ccc(-c2cc(C(=O)O)ncn2)cc1` [6-(4-Methoxy-phenyl)-pyrimidine-4-carboxylic acid], the inhibition at 10 µM was 100%. Consider `O=C(c1cc(-c2ccc(Cl)c(Cl)c2)ncn1)N1CCCc2ccccc21` [[6-(3,4-Dichloro-phenyl)-pyrimidin-4-yl]-(3,4-dihydro-2H-quinolin-1-yl)-methanone], for which the inhibition at 10 µM was 92.6%. Next, `O=C(Nc1ccccc1)c1cc(-c2cc(Cl)cc(Cl)c2)ncn1` [6-(3,5-Dichloro-phenyl)-pyrimidine-4-carboxylic acid phenylamide]: 77.6%. Next, `COC(=O)c1cc(-c2ccc(F)c(Cl)c2)ncn1` [6-(3-Chloro-4-fluoro-phenyl)-pyrimidine-4-carboxylic acid methyl ester]: 100%; `O=C(Nc1nccs1)c1cc(-c2ccc(Cl)c(Cl)c2)ncn1` [6-(3,4-Dichloro-phenyl)-pyrimidine-4-carboxylic acid thiazol-2-ylamide]: 83.7%; `COC(=O)c1cc(-c2cccc(Cl)c2)nc(C)n1` [6-(3-Chloro-phenyl)-2-methyl-pyrimidine-4-carboxylic acid methyl ester]: 100%.

As for `O=C(Nc1cccnc1)c1cc(-c2ccc(F)c(F)c2)ncn1` [6-(3,4-Difluoro-phenyl)-pyrimidine-4-carboxylic acid pyridin-3-ylamide], the inhibition at 10 µM turned out to be 84.7%. Next, `O=C(Nc1cccnc1)c1cc(-c2ccc(Cl)c(Cl)c2)ncn1` [6-(3,4-Dichloro-phenyl)-pyrimidine-4-carboxylic acid pyridin-3-ylamide]: 83.5%; `CN1CCN(C(=O)c2cc(-c3cccc(Cl)c3)ncn2)CC1` [[6-(3-Chloro-phenyl)-pyrimidin-4-yl]-(4-methyl-piperazin-1-yl)-methanone]: 64.3%. Next, `Cc1nsc(NC(=O)c2cc(-c3cccc(Cl)c3)ncn2)n1` [6-(3-Chloro-phenyl)-pyrimidine-4-carboxylic acid (3-methyl-[1,2,4]thiadiazol-5-yl)-amide]: 85.4%. Next, `O=C(O)c1cc(-c2cc(F)cc(C(F)(F)F)c2)ncn1` [6-(3-Fluoro-5-trifluoromethyl-phenyl)-pyrimidine-4-carboxylic acid]: 75.8%; `COC(=O)c1cc(-c2ccc(OC)c(Cl)c2)ncn1` [6-(3-Chloro-4-methoxy-phenyl)-pyrimidine-4-carboxylic acid methyl ester]: 100%; `COc1ccc(NC(=O)c2cc(-c3cccc(Cl)c3)ncn2)cn1` [6-(3-Chloro-phenyl)-pyrimidine-4-carboxylic acid (6-methoxy-pyridin-3-yl)-amide]: 93.4%. For the molecule `COC(=O)c1cc(-c2cccnc2)ncn1` [6-Pyridin-3-yl-pyrimidine-4-carboxylic acid methyl ester trifluoroacetic acid salt], the inhibition at 10 µM was determined as 74.5%. Next, `C[C@H](NC(=O)c1cc(-c2cccc(Cl)c2)ncn1)c1ccccc1` [6-(3-Chloro-phenyl)-pyrimidine-4-carboxylic acid ((S)-1-phenyl-ethyl)-amide]: 99.8%; `Cc1noc(C)c1NC(=O)c1cc(-c2cccc(Cl)c2)ncn1` [6-(3-Chloro-phenyl)-pyrimidine-4-carboxylic acid (3,5-dimethyl-isoxazol-4-yl)-amide]: 79%; `C[C@H](O)CNC(=O)c1cc(-c2cccc(Cl)c2)ncn1` [6-(3-Chloro-phenyl)-pyrimidine-4-carboxylic acid ((S)-2-hydroxy-propyl)-amide]: 87.3%.

Consider `CCNC(=O)c1cc(-c2cccc(Cl)c2)ncn1` [6-(3-Chloro-phenyl)-pyrimidine-4-carboxylic acid ethylamide], for which the inhibition at 10 µM was found to be 100%. Next, `CCCNC(=O)c1cc(-c2cccc(Cl)c2)ncn1` [6-(3-Chloro-phenyl)-pyrimidine-4-carboxylic acid propylamide]: 72.4%; `COC(=O)c1cc(-c2ccc(Cl)c(Cl)c2)ncn1` [6-(3,4-Dichloro-phenyl)-pyrimidine-4-carboxylic acid methyl ester]: 101%. Consider `O=C(c1cc(-c2cccc(Cl)c2)ncn1)N1CCc2cnccc21` [[6-(3-Chloro-phenyl)-pyrimidin-4-yl]-(2,3-dihydro-pyrrolo[3,2-c]pyridin-1-yl)-methanone], for which the inhibition at 10 µM is 100%. As for `Cc1ncccc1NC(=O)c1cc(-c2cccc(Cl)c2)ncn1` [6-(3-Chloro-phenyl)-pyrimidine-4-carboxylic acid (2-methyl-pyridin-3-yl)-amide], the figure is 97.8%; as for `Cc1ccccc1NC(=O)c1cc(-c2cccc(Cl)c2)ncn1` [6-(3-Chloro-phenyl)-pyrimidine-4-carboxylic acid o-tolylamide], 96.2%. Next, `COC(=O)c1cc(-c2ccc(Cl)c(Cl)c2)nc(C)n1` [6-(3,4-Dichloro-phenyl)-2-methyl-pyrimidine-4-carboxylic acid methyl ester]: 95.5%. Next, `O=C(O)c1cc(-c2cc(Cl)ccc2F)ncn1` [6-(5-Chloro-2-fluoro-phenyl)-pyrimidine-4-carboxylic acid]: 100%; `COC(=O)c1cc(-c2cncc(F)c2)ncn1` [6-(5-Fluoro-pyridin-3-yl)-pyrimidine-4-carboxylic acid methyl ester]: 87.2%; `Cn1cc(NC(=O)c2cc(-c3cccc(Cl)c3)ncn2)cn1` [6-(3-Chloro-phenyl)-pyrimidine-4-carboxylic acid (1-methyl-1H-pyrazol-4-yl)-amide]: 100%.

As to `O=C1CN(C(=O)c2cc(-c3cccc(Cl)c3)ncn2)CCN1` [4-[6-(3-Chloro-phenyl)-pyrimidine-4-carbonyl]-piperazin-2-one], the inhibition at 10 µM is 100%. As for `O=C(Nc1ccccc1)c1cc(-c2cc(Cl)cc(Cl)c2)ccn1` [4-(3,5-Dichloro-phenyl)-pyridine-2-carboxylic acid phenylamide], the figure is 59.7%. Next, `COC(=O)c1cc(-c2cc(Cl)cc(Cl)c2)ncn1` [6-(3,5-Dichloro-phenyl)-pyrimidine-4-carboxylic acid methyl ester]: 101%. Regarding `CN(C(=O)c1cc(-c2cccc(Cl)c2)ncn1)c1ccc2c(c1)OC(F)(F)O2` [6-(3-Chloro-phenyl)-pyrimidine-4-carboxylic acid (2,2-difluoro-benzo[1,3]dioxol-5-yl)-methyl-amide], the inhibition at 10 µM was determined as 98.7%. Next, `O=C(Nc1ccc(N2CCOCC2)cc1)c1cc(-c2cccc(Cl)c2)ncn1` [6-(3-Chloro-phenyl)-pyrimidine-4-carboxylic acid (4-morpholin-4-yl-phenyl)-amide]: 93.6%; `CN(C(=O)c1cc(-c2cccc(Cl)c2)ncn1)c1cccnc1` [6-(3-Chloro-phenyl)-pyrimidine-4-carboxylic acid methyl-pyridin-3-yl-amide]: 95.2%.

For `O=C(Nc1cccnc1)c1cc(-c2cccc(Cl)c2)ncn1` [6-(3-Chloro-phenyl)-pyrimidine-4-carboxylic acid pyridin-3-ylamide], the inhibition at 10 µM came to 98.6%. As for `COC(=O)c1cc(-c2ccc(F)c(F)c2)ncn1` [6-(3,4-Difluoro-phenyl)-pyrimidine-4-carboxylic acid methyl ester], the inhibition at 10 µM was 100%. Next, `COc1ccncc1NC(=O)c1cc(-c2cccc(Cl)c2)ncn1` [6-(3-Chloro-phenyl)-pyrimidine-4-carboxylic acid (4-methoxy-pyridin-3-yl)-amide]: 91%. Consider `CC(=O)N1CCN(C(=O)c2cc(-c3cccc(Cl)c3)ncn2)CC1` [1-{4-[6-(3-Chloro-phenyl)-pyrimidine-4-carbonyl]-piperazin-1-yl}-ethanone], for which the inhibition at 10 µM came out at 94.9%. Next, `COc1cncc(NC(=O)c2cc(-c3ccc(Cl)c(Cl)c3)ncn2)c1` [6-(3,4-Dichloro-phenyl)-pyrimidine-4-carboxylic acid (5-methoxy-pyridin-3-yl)-amide]: 100%; `Cc1cc(NC(=O)c2cc(-c3ccc(Cl)c(Cl)c3)ncn2)on1` [6-(3,4-Dichloro-phenyl)-pyrimidine-4-carboxylic acid (3-methyl-isoxazol-5-yl)-amide]: 100%.

Consider `CNC(=O)c1cc(-c2cccc(Cl)c2)ncn1` [6-(3-Chloro-phenyl)-pyrimidine-4-carboxylic acid methylamide], for which the inhibition at 10 µM was determined as 100%.
